# Measured values taken from patent publication US12115152B2, “Pan-RAF kinase inhibitor and use thereof” (HEFEI INSTITUTES OF PHYSICAL SCIENCE, CHINESE ACADEMY OF …, priority 2019, dated 2024).
# Key:
# Format in all cases: cell-based
# [1] = Effect on proliferation of cells, Cell Titer-Glo, 72 hours; conditions: Mus musculus, BaF3 cells
# Protocol: The compounds of the present invention were tested for their effect on growth of cancer cells (Table 2), to further evaluate the compounds herein for their inhibitory effect on proliferation of cancer cells and their selectivity in inhibiting proliferation of cancer cells. […]
# (§1) In the example, solutions of the test compound in DMSO at different concentrations (0.000508 μM, 0.00152 μM, 0.00457 μM, 0.0137 μM, 0.0411 μM, 0.123 μM, 0.370 μM, 1.11 μM, 3.33 μM, 10 μM) was added to the above cells respectively. The cells were incubated for 72 hours. The number of viable cells was detected with a Cell Titer-Glo (Promega, USA) Cell Viability Assay Kit by quantifying the ATP in viable cells. The values of GI50 (unit) of the compounds of the present invention against each of the test cells were determined.
# [2] = tested on: colorectal cancer cell COLO205 (expressing BRAF-V600E mutant kinase); experiment: Effect on proliferation of cancer cells, Cell Titer-Glo, 72 hours; conditions: Homo sapiens, COLO 205
# Protocol: (§2) The compounds of the present invention were tested for their effect on growth of cancer cells (Table 2), to further evaluate the compounds herein for their inhibitory effect on proliferation of cancer cells and their selectivity in inhibiting proliferation of cancer cells.
# (§3) The cells were incubated for 72 hours. The number of viable cells was detected with a Cell Titer-Glo (Promega, USA) Cell Viability Assay Kit by quantifying the ATP in viable cells. The values of GI50 (unit) of the compounds of the present invention against each of the test cells were determined.
# [3] = tested on: melanoma cell A375 (expressing BRAF-V600E mutant kinase); experiment: as above; conditions: Homo sapiens, A-375
# Protocol: as §2, §3
# [4] = tested on: mouse BaF3-FL-BRAF-V600E (stably expressing full-length BRAF-V600E mutant kinase); experiment: as above
# Protocol: as §2, §3
# [5] = tested on: human acute leukemia cell NB4 (expressing KRAS-A18D mutant kinase); experiment: as above; conditions: NB-4
# Protocol: as §2
# (§4) The above-mentioned BaF3-FL-BRAF-V600E mutant cell line was constructed by the method as follows. The sequence of human full-length BRAF-V600E mutant kinase region was amplified by PCR, inserted into a MSCV-Puro vector (purchased from Clontech), and stably transfected into mouse BaF3 cells by the retroviral method, and the growth factor IL-3 was removed. Eventually, a cell line dependent on a full-length BRAF-V600E protein having various mutation transferred was obtained.
# as §1
# [6] = tested on: human acute leukemia cell OCI-AML-3 (expressing NRAS-Q61L mutant kinase); experiment: as above; conditions: OCI-AML-3 cells
# Protocol: as §2, §4, §1
Structure (SMILES),GI50 [2] [µM],GI50 [3] [µM],GI50 [4] [µM],GI50 [5] [µM],GI50 [6] [µM],GI50 [1] [µM]
"Cc1ccc(NC(=O)c2cccc(C(F)(F)F)c2)cc1-n1cc(-c2cnccc2OCCCCO)cn1 [Example 166, N-(3-(4-(4-(4-hydroxybutoxy)pyrid-3-yl)-1H-pyrazol-1-yl)-4-methylphenyl)-3-(trifluoromethyl)benzamide]",0.094,0.077,0.001,0.069,0.019,2.6
"Cc1ccc(NC(=O)c2cccc(C(C)(C)C#N)c2)cc1-n1cc(-c2cnccc2OCCCCO)cn1 [Example 165, 3-(2-cyanoprop-2-yl)-N-(3-(4-(4-(4-hydroxybutoxy)pyrid-3-yl)-1H-pyrazol-1-yl)-4-methylphenyl)benzamide]",0.19,0.04,< 0.0003,0.075,0.014,1.8
"Cc1ccc(NC(=O)c2ccc(CN3CCN(C)CC3)c(C(F)(F)F)c2)cc1-n1cc(-c2cncc(N3CCOCC3)c2)cn1 [Example 12, N-(4-methyl-3-(4-(5-morpholinopyrid-3-yl)-1H-pyrazol-1-yl)phenyl)-4-((4-methylpiperazin-1-yl)methyl)-3-(trifluoromethyl)benzamide]",0.045,0.097,0.0074,–,–,0.21
"Cc1ccc(NC(=O)c2cccc(C(C)(C)C#N)c2)cc1-n1cc(-c2cncc(OC3COC3)c2)cn1 [Example 84, 3-(2-cyanoprop-2-yl)-N-(4-methyl-3-(4-(5-(oxetan-3-yloxy)pyrid-3-yl)-1H-pyrazol-1-yl)phenyl)benzamide]",0.13,0.099,< 0.0003,–,–,8.6
"Cc1ccc(NC(=O)c2cccc(C(F)(F)F)c2)cc1-n1cc(-c2cnccc2OC2CCOC2)cn1 (stereo not shown) [Example 69, N-(4-methyl-3-(4-(4-((tetrahydrofuran-3-yl)oxy)pyrid-3-yl)-1H-pyrazol-1-yl)phenyl)-3-(trifluoromethyl)benzamide]",0.061,0.035,0.016,–,–,1.2
"Cc1ccc(NC(=O)c2cccc(C(C)(C)C#N)c2)cc1-n1cc(-c2cncc(-c3cccnc3)c2)cn1 [Example 3, N-(3-(4-([3,3′-bipyridyl]-5-yl)-1H-pyrazol-1-yl)-4-methylphenyl)-3-(2-cyanoprop-2-yl)benzamide]",0.01,0.021,< 0.0003,–,–,1
"Cc1ccc(NC(=O)c2cccc(C(C)(C)C#N)c2)cc1-n1cc(-c2cnccc2OCC2CCOCC2)cn1 [Example 72, 3-(2-cyanoprop-2-yl)-N-(4-methyl-3-(4-(4-((tetrahydro-2H-pyran-4-yl)methoxy)pyrid-3-yl)-1H-pyrazol-1-yl)phenyl)benzamide]",0.1,0.034,0.0056,–,–,5.8
"Cc1ccc(NC(=O)c2ccc(CN3CCN(C)CC3)c(C(F)(F)F)c2)cc1-n1cc(-c2cncc(-c3ccncc3)c2)cn1 [Example 8, N-(3-(4-([3,4′-bipyridyl]-5-yl)-1H-pyrazol-1-yl)-4-methylphenyl)-4-((4-methylpiperazin-1-yl)methyl)-3-(trifluoromethyl)benzamide]",0.028,0.027,0.01,–,–,0.31

# Now from value to compound, other results behind:
GI50 [2] [µM],GI50 [3] [µM],GI50 [4] [µM],GI50 [5] [µM],GI50 [6] [µM],Structure (SMILES),GI50 [1] [µM]
0.039,0.032,0.0039,0.061,0.011,"Cc1ccc(NC(=O)c2cccc(C(F)(F)F)c2)cc1-n1cc(-c2cnccc2OCCCO)cn1 [Example 162, N-(3-(4-(4-(3-hydoxypropoxy)pyrid-3-yl)-1H-pyrazol-1-yl)-4-methylphenyl)-3-(trifluoromethyl)benzamide]",5
0.036,0.022,0.0066,0.16,0.023,"COCCOc1ccncc1-c1cnn(-c2cc(NC(=O)c3cccc(C(C)(C)C#N)c3)ccc2C)c1 [Example 159, 3-(2-cyanoprop-2-yl)-N-(3-(4-(4-(2-methoxyethoxy)pyrid-3-yl)-1H-pyrazol-1-yl)-4-methylphenyl)benzamide]",5.2
0.071,0.12,0.004,0.035,0.0091,"Cc1ccc(NC(=O)c2cccc(C(F)(F)F)c2)cc1-n1cc(-c2cncc(N3CCNCC3)c2)cn1 [Example 164, N-(4-methyl-3-(4-(5-(piperizan-1-yl)pyrid-3-yl)-1H-pyrazol-1-yl)phenyl)-3-(trifluoromethyl)benzamide]",1.6
0.039,0.16,0.018,0.044,0.01,"Cc1ccc(NC(=O)c2cccc(C(C)(C)C#N)c2)cc1-n1cc(-c2cncc(N3CCNCC3)c2)cn1 [Example 163, 3-(2-cyanoprop-2-yl)-N-(4-methyl-3-(4-(5-(piperizan-1-yl)pyrid-3-yl)1H-pyrazol-1-yl)phenyl)benzamide]",1.6
0.055,0.014,0.0023,0.095,0.012,"Cc1ccc(NC(=O)c2cccc(C(C)(C)C#N)c2)cc1-n1cc(-c2cnccc2OCCCO)cn1 [Example 161, 3-(2-cyanoprop-2-yl)-N-(3-(4-(4-(3-hydorxypropoxy)pyrid-3-yl)-1H-pyrazol-1-yl)-4-methylphenyl)benzamide]",3.6
0.065,0.036,< 0.0003,–,–,"Cc1ccc(NC(=O)c2cccc(C(C)(C)C#N)c2)cc1-n1cc(-c2cnccc2OCC2COC2)cn1 [Example 87, 3-(2-cyanoprop-2-yl)-N-(4-methyl-3-(4-(4-(oxetan-3-ylmethoxy)pyrid-3-yl)-1H-pyrazol-1-yl)phenyl)benzamide]",2.5
